# Data taken from patent US20200148682A1, “AKT ISOZYME-SPECIFIC COVALENT INHIBITORS DERIVED FROM REDOX-SIGNALING LIPIDS” (Cornell University, priority 2017, published 2020).
# Tests used:
# Assay type in all cases: cell-based
# endogenous Akt = test: Biotin-azide pulldown of endogenous Akt kinases from native HEK293T cells; conditions: 5 μM, 12 hours
# Procedure: A fraction of each sample was used for the input blot. The remaining cell lysates were labeled with biotin-azide using standard click chemistry followed by streptavidin enrichment.
# HEK293T cells were split in 100 cm^2 plates. […] Cells were harvested, washed twice with chilled 1×DPBS and flash frozen. Cell lysis was performed in 200 μL lysis buffer following general procedure described in Example 13, Each lysate was subsequently diluted to 2 mg/mL with lysis buffer and a small fraction of each lysate sample was kept for input gel. The remaining lysates were subjected to click reaction with biotin-azide for 30 min at 37° C. The final concentrations of each component was: 2 mM TCEP, 5% t-BuOH, 1% SDS, 1 mM CuSO4, 0.1 mM Cu(TBTA), 10 μM biotin-azide and 1.2 mg/mL lysate protein. The lysate proteins were precipitated by adding four volumes of ethanol pre-chilled at −20° C. The sample was vortexed and incubated at −80° C. overnight (or at least 4 hours). The precipitant was collected by centrifugation at 20,000×g for 30 min at 4° C. and washed twice with pre-chilled methanol then acetone. The pellet was resuspended in 25 μL 50 mM HEPES (pH 7.6), 8% LDS and 0.5 μM EDTA and dissolved by vortexing and heating at 42° C. for 5 min. […]
# BT-549 = test: Cell viability assay (AlamarBlue); conditions: BT-549, 72 hours
# Procedure: (§1) FIGS. 22A and 22D are graphs showing results of cytotoxicity assays for MDA-MB-468 (FIG. 22A) and BT-549 (FIG. 22D). […] Stated cell lines were plated in 96-well plates (3000 cells per well) in the presence of the stated concentration of inhibitor. After 72 hours, the number of viable cells was analyzed by AlamarBlue®. Proliferation inhibition 50% (PI50) values were calculated by fitting data to “PI50 equation” (EQN 4) (FIG. 22C). MDA cells were transfected with the stated siRNA using lipofectamine 3000 for 12 hours. […] After 72 hours, the number of viable cells was calculated using AlamarBlue®. FIG. 22F is a schematic showing AlamarBlue® viability assay. […] MDA-MB-468 cells were treated with the stated drugs for 72 hours at the PI60 and PI80. After this time, cells were harvested, fixed/permeabilized with ethanol and DNA content was stained using propidium iodide (visualized in the 488-3 channel). RNA was removed simultaneously using RNAse. After 30 min at room temperature, cells were analyzed by flow cytometry.
# (§2) Indicated cells were plated in a 96-well plate containing the DMEM complete medium (see Example 11 for complete medium formulation, 100 μL per well) with a density of 3,000-5,000 cells per well for 12 hours followed by the addition of varying concentrations of inhibitors in rinse medium (100 μL). The cells were allowed to grow for 72 hours and 100 μL of the culture medium was removed from each well. This was followed by the addition of 10 μL AlamarBlue® reagent to each well. The fluorescence emission signals at 590 nm were read by Cytation 3 cell imaging multi-mode reader (BioTeK) using an excitation wavelength of 560 nm. Curve fitting and data analysis were performed using Prism software.
# MDA-MB-468 = test: Cell viability assay (AlamarBlue); conditions: MDA-MB-468, 72 hours
# Procedure: as §1, §2
# T47D MK-2206-res = test: Cell viability assay (AlamarBlue), MK-2206-resistant line; conditions: 3 days
# Procedure: After this time, cells were lysed and analyzed by antibodies for phosphorylated T305 (pT305) of Akt3, Halo (Akt), and Actin (loading control). […] FIG. 23F is a graph showing proliferation curves. […] After this time, the number of viable cells was calculated using AlamarBlue®. Proliferation curves were fitted to the PI50 equation (EQN. 4). […] FIG. 23H is a graph showing the percentage of viable cells. […] The percentage of growth relative to DMSO-treated cells is shown for the 48 hour point and the 72 hour point. FIG. 23I is a schematic showing the different methods used to derive the data in 23H.
# as §2
SMILES,"labeling of endogenous Akt (streptavidin enrichment, anti-pan-Akt blot) (endogenous Akt)",toxicity / potency relative to MK-2206 (BT-549),toxicity / potency relative to MK-2206 (MDA-MB-468),resistance of T47D MK-2206-res line (T47D MK-2206-res)
"C#CCCCC(O)/C=C/C(=O)NC1(c2ccc(-c3nc4ccn5c(=O)[nH]nc5c4cc3-c3ccccc3)cc2)CCC1.Cl (stereo not shown) [MK-HNE, (E)-8-(4-(1-(4-Hydroxynon-2-en-8-ynamido)cyclobutyl)phenyl)-3-oxo-9-phenyl-2,3-dihydro-[1,2,4]triazolo[3,4-f][1,6]naphthyridin-7-ium Chloride]",enrichment of endogenous Akt protein(s),–,–,–
"C#CCCCC(F)/C=C/C(=O)NC1(c2ccc(-c3nc4ccn5c(=O)[nH]nc5c4cc3-c3ccccc3)cc2)CCC1.Cl (stereo not shown) [MK-FNE, (E)-8-(4-(1-(4-Fluoronon-2-en-8-ynamido)cyclobutyl)phenyl)-3-oxo-9-phenyl-2,3-dihydro-[1,2,4]triazolo[3,4-f][1,6]naphthyridin-7-ium Chloride]",–,similarly potent to MK-2206,similarly potent to MK-2206,significantly less resistant
